Like-named read-outs stand apart in the source and are kept apart here.
Columns and labels:
Type in all cases: biochemical, mice
[1] = system: Mitochondrial Permeability Transition Pore; assay: Mitochondrial swelling absorbance assay
Method: Mitochondrial Swelling (Hit Validation, Confirmatory Assay, Concentration-Response, AID No. 720722)
Assay buffer: 250 mM sucrose, 10 mM MOPS-Tris, 0.01 mM EGTA-Tris, 1.0 mM phosphoric acid-Tris, pH 7.4 • Solution 1. 5.0 mM glutamate and 2.5 mM malate in Assay buffer. • Solution 2. 80-120 μM CaCl2) depending on mitochondrial activity in Solution 1. Note: Concentration of Ca^2+ in the assay is dependent upon the activity of the isolated mitochondria which is determined via a calcium titration just before each screening batch. A Ca^2+ concentration is used that allows for the arrival at a 2:1 window at the 20 minute time period. • Solution 3. 1% DMSO in Solution 2. • Solution 4. 2.0 mM EGTA-Tris, pH 7.4 in Solution 3. • Solution 5. 0.5 mg/mL mitochondria in Assay Buffer.
Protocol Summary: • 1. Freshly isolate mitochondria, prepare solutions according to the recipes in the reagent section • 2. Dispense 100 μL of Solution 4 to Columns 1-2 and Solution 3 Columns 11-12 (positive and negative controls, respectively) of the 96-well clear assay plate (Falcon 353072) • 3. Dispense 200 μL of Solution 1 to Row A Columns 3-10. • 4. Next, dispense 100 μL of Solution 3 to Rows B-H Columns 3-10. • 5. Add 4 μL of 5 mM test compounds in DMSO to Row A Columns 3-10, perform 1:2 serial dilutions Row A to H Columns 3-10. • 6. Finally, dispense 100 μL of Solution 5 in all wells. The reaction starts. • 7. Keep the plate at room temperature for 20 minutes and then read absorbance at 540 nm on MultiSkan EX, Thermo Scientific.
Concentration-Response Assay to Identify Compounds that Inhibit Mitochondrial Swelling (SAR Assay AID No. 743359)
Assay buffer: 250 mM sucrose, 10 mM MOPS-Tris, 0.01 mM EGTA-Tris, 1.0 mM phosphoric acid, pH 7.4 • Solution 1. 5.0 mM glutamate and 2.5 mM malate in Assay Buffer. • Solution 2. 100-120 μM CaCl2) depending on mitochondrial activity in Solution 1. Note: Concentration of Ca^2+ in the assay is dependent upon the activity of the isolated mitochondria which is determined via a calcium titration just before each screening batch. A Ca^2+ concentration is used that allows for the arrival at a 2:1 window at the 20 minute time period. • Solution 3. 1% DMSO in Solution 2. • Solution 4. 2.0 mM EGTA-Tris, pH 7.4 in Solution 3. • Solution 5. 0.5 mg/mL mitochondria in Assay Buffer.
Protocol Summary: • 1. Freshly isolate mitochondria, prepare solutions according to the recipes in the Reagent Section. • 2. Dispense 100 μL of Solution 4 to Columns 1-2 and Solution 3 Columns 11-12 (positive and negative controls, respectively) of the 96-well clear assay plate (Falcon 353072). • 3. Dispense 200 μL of Solution 1 to Row A Columns 3-10. • 4. Next, dispense 100 μL of Solution 3 to Rows B-H Columns 3-10. • 5. Add 4 μL of 5 mM test compounds in DMSO to Row A Columns 3-10, perform 1:2 serial dilutions Row A to H Columns 3-10. • 6. Finally, dispense 100 μL of Solution 5 in all wells. The reaction starts. • 7. Keep the plate at room temperature for 20 minutes and then read absorbance at 540 nm on MultiSkan EX, Thermo Scientific.

IMM potential = assay: Rhodamine 123 (Rh123) uptake counterscreen;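 further: isolated mitochondria respiring on glutamate plus malate in sucrose MOPS-Tris buffer at pH 7.4, Rh123 added with the organelles, compounds tested across a twofold dilution series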
Method: Assay buffer: 250 mM sucrose, 10 mM MOPS-Tris, 0.01 mM EGTA-Tris, 1.0 mM phosphoric acid-Tris, pH 7.4 • Solution 1. 5.0 mM glutamate and 2.5 mM malate in Assay Buffer. • Solution 2. 1% DMSO in Solution 1. • Solution 3. 0.8 μM FCCP (the stock 40 μM in DMSO) in Solution 1. • Solution 4. 0.5 mg/mL mitochondria and 0.8 μM Rh123 in Assay Buffer.
Protocol Summary: • 1. Freshly isolate mitochondria, prepare solutions according to the recipes in the Reagent Section. • 2. Dispense 100 μL of Solution 3 to Columns 1-2 and Solution 2 Columns 11-12 (positive and negative controls, respectively) of the 96-well black assay plate (Falcon 353376). • 3. Dispense 200 μL of Solution 1 to Row A Columns 3-10. • 4. Next, dispense 100 μL of Solution 2 to Rows B-H Columns 3-10. • 5. Add 4 μL of 10 mM test compounds in DMSO to Row A Columns 3-10, perform 1:2 serial dilutions Row A to H Columns 3-10. • 6. Finally, dispense 100 μL of Solution 4 in all wells. The reaction starts. • 7. Keep the plate at room temperature for 5 minutes and then read fluorescence (excitation 485 nm, emission 538 nm) on Fluoroskan Ascent FL, Thermo Scientific.
Concentration-Response Counterscreen Assay to Identify Compounds that Prevent Mitochondrial Swelling Via Interference with the IMM Potential (SAR Assay AID No. 743361)
Assay buffer: 250 mM sucrose, 10 mM MOPS-Tris, 0.01 mM EGTA-Tris, 1.0 mM phosphoric acid-Tris, pH 7.4 • Solution 1. 5.0 glutamate and 2.5 mM malate in Assay Buffer. • Solution 2. 1% DMSO in Solution 1. • Solution 3. 0.8 μM FCCP (the stock 40 μM in DMSO) in Solution 1. • Solution 4. 0.5 mg/mL mitochondria and 0.8 μM Rh123 in Assay Buffer.

mtPTP = assay: Calcium retention capacity (CRC) assay on isolated mitochondria; conditions: for Calcium Retention Capacity (CRC/CRC0) at 1.56 μM: 1.56 μM compound; for Calcium Retention Capacity (CRC/CRC0 at 12.5 μM): 12.5 μM compound
Method: Assay buffer: 250 mM sucrose, 10 mM MOPS-Tris, 0.01 mM EGTA-Tris, 1.0 mM phosphoric acid-Tris, pH 7.4. • Solution 1. 10 mM glutamate and 5 mM malate in Assay buffer. • Solution 2. 1% DMSO in Solution 2. • Solution 3. 0.5 mg/mL mitochondria and 1.0 μM Calcium Green-5N in Assay Buffer. • Solution 4. 0.25 mM CaCl2).
Protocol Summary: • 1. Freshly isolate mitochondria, prepare solutions according to the recipes in the Reagent Section. • 2. Dispense 100 μL of Solution 2 to Columns 1-2 (negative control) of the 96-well black assay plate (Falcon 353376). • 3. Dispense 200 μL of Solution 1 to Row A Columns 3-12. • 4. Next, dispense 100 μL of Solution 2 to Rows B-H Columns 3-12. • 5. Add 4 μL of 5 mM test compounds in DMSO to Row A Columns 3-12, perform 1:2 serial dilutions Row A to H Columns 3-12. • 6. Finally, dispense 100 μL of Solution 3 in all wells. • 7. Experiment starts. Read Calcium Green-5N fluorescence (excitation 485 nm, emission 538 nm) and perform a train of 4 μL Solution 4 additions with Fluoroskan Ascent FL, Thermo Scientific.

[2] = Table 1, read-out: Rh123 uptake (EC50)
[3] = Table 2, average of >3 experiments ± SEM
[4] = Table 2, average of >3 experiments ± SEM, read-out: Rh123 Assay EC50

Row | SMILES | EC50 ([1]; Table 1, average ± SEM) [µM] | EC50 ([1]; Table 1, unit inferred, average ± SEM) [µM] | EC50 [1, 3] [µM] | EC50 (IMM potential; [2]) [µM] | Calcium Retention Capacity (CRC/CRC0) at 1.56 μM (mtPTP; Table 1, average ± SEM) | Calcium Retention Capacity (CRC/CRC0 at 12.5 μM) (mtPTP; Table 1, average ± SEM) | EC50 (IMM potential; [4]) [µM] | Calcium Retention Capacity (CRC/CRC0 at 12.5 μM) (mtPTP; [3])
1 | O=C(Nc1cc(Cl)cc(Cl)c1)c1cc(-c2ccc(F)c(O)c2)on1 [drawing 140] |  | 0.0756 ± 0.0092 |  | > 100 |  | 7.14 ± 0.69 |  | 
2 | O=S(=O)(Nc1ccc(CCN2CCNCC2)cc1)c1cc(Cl)cc(Cl)c1 | 21.4 ± 0.983 |  |  | > 100 |  | 1.09 ± 0.05 |  | 
3 | O=S(=O)(Nc1ccc(CCN2CCCCC2)cc1)c1cc(Cl)cc(Cl)c1 | 25.6 ± 1.8 |  |  | > 100 |  | 1.17 ± 0.04 |  | 
4 | Cc1cc(Cl)cc(NC(=O)c2cc(-c3ccc(F)c(O)c3)on2)c1 | 0.819 ± 0.0589 |  |  | > 100 |  | 6.08 ± 0.52 |  | 
5 | COc1ccc(Cl)cc1C(=O)Nc1cccc(CN2CCNCC2)c1 | 3.27 ± 0.15 |  |  | > 100 |  | 1.52 ± 0.06 |  | 
6 | O=C(Nc1ccc(CN2CCCCC2)cc1)c1ccc(Cl)c(OCc2cccc(Cl)c2)c1 [Entry 8] |  |  | 1.19 ± 0.33 |  |  |  | 23.2 ± 1.3 | 6.50 ± 1.20
7 | O=C(Nc1cccc(Cl)c1Cl)c1cc(-c2cccc(O)c2)on1 | 12.5 ± 0.667 |  |  | > 100 |  | 4.00 ± 0.42 |  | 
8 | O=C(Nc1cc(Cl)ccc1OCc1ccccc1)c1cc(-c2cccc(O)c2)on1 | 17.6 ± 2.21 |  |  | > 100 |  | 1.59 ± 0.33 |  | 
9 | COc1ccc(Cl)cc1C(=O)Nc1ccc(CN2CCCCC2)cc1 | 1.54 ± 0.101 |  |  | > 100 |  | 1.80 ± 0.00 |  | 
10 | COc1ccc(Cl)cc1C(=O)Nc1ccc(CCN2CCNCC2)cc1 [drawing 154] | 7.25 ± 0.526 |  |  | > 100 |  | 1.31 ± 0.03 |  | 
11 | O=C(Nc1cc(Cl)ccc1Cl)c1cc(-c2cccc(O)c2)on1 | 1.52 ± 0.0512 |  |  | 38.5 ± 3.98 |  | 4.67 ± 0.31 |  | 
12 | Cc1ccc(Cl)cc1NC(=O)c1ccc(-c2cccc(O)c2)cc1 | 4.71 ± 0.349 |  |  | > 100 |  | 2.59 ± 0.22 |  | 
13 | CN1CCN(Cc2ccc(NS(=O)(=O)c3cc(Cl)cc(Cl)c3)cc2)CC1 | 29.2 ± 2.1 |  |  | > 100 |  | 1.10 ± 0.02 |  | 
14 | CN(C)c1ccc(Cl)cc1NC(=O)c1cc(-c2cccc(O)c2)on1 | 1.61 ± 0.866 |  |  | > 100 |  | 2.22 ± 0.38 |  | 
15 | COc1ccc(Cl)cc1C(=O)Nc1ccc(CN2CCNCC2)cc1 [drawing 153] | 2.15 ± 0.1 |  |  | > 100 |  | 1.65 ± 0.06 |  | 
16 | COc1ccc(-c2cc(C(=O)Nc3cc(Cl)ncc3C)no2)cc1O [drawing 202] | 0.366 ± 0.0475 |  |  | > 100 |  | 4.27 ± 0.40 |  | 
17 | O=C(Nc1ccc(CN2CCCCC2)cc1)c1cccc(OCc2ccccc2)c1 | 0.885 ± 0.116 |  |  | 51.2 |  | 3.54 ± 0.28 |  | 
18 | O=C(Nc1ccc(CN2CCCCC2)cc1)c1ccc(Cl)c(OCc2ccccc2F)c1 [Entry 11] |  |  | 1.39 ± 0.17 |  |  |  | > 100 | 2.59 ± 0.54
19 | CN1CCN(Cc2ccc(NC(=O)c3ccc(Cl)c(OCc4ccccc4)c3)cc2)CC1 [Entry 5] |  |  | 0.423 ± 0.028 |  |  |  | 49.6 ± 4.3 | 14.1 ± 1.1
20 | COc1ccc(Cl)cc1C(=O)Nc1ccc(CCN2CCNCC2)cc1 [drawing 145] | 5.85 ± 0.344 |  |  | > 100 |  | 1.37 ± 0.02 |  | 
21 | Cc1ccc(Cl)cc1NC(=O)c1cc(-c2ccccc2O)on1 | 6.06 ± 0.748 |  |  | > 100 |  | 2.10 ± 0.26 |  | 

Second part, led by results:

Row | EC50 ([1]; Table 1, average ± SEM) [µM] | EC50 ([1]; Table 1, unit inferred, average ± SEM) [µM] | EC50 [1, 3] [µM] | SMILES | EC50 (IMM potential; [2]) [µM] | Calcium Retention Capacity (CRC/CRC0) at 1.56 μM (mtPTP; Table 1, average ± SEM) | Calcium Retention Capacity (CRC/CRC0 at 12.5 μM) (mtPTP; Table 1, average ± SEM) | EC50 (IMM potential; [4]) [µM] | Calcium Retention Capacity (CRC/CRC0 at 12.5 μM) (mtPTP; [3])
22 | 0.011 ± 0.0011 |  |  | COc1ccc(-c2cc(C(=O)Nc3cc(Cl)cnc3C)no2)cc1O | > 100 | 10.10 ± 1.14 | 13.47 ± 1.32 |  | 
23 | 0.03 ± 0.0022 |  |  | Cc1ccccc1NC(=O)c1cc(-c2cccc(O)c2)on1 | > 100 |  | 8.16 ± 0.92 |  | 
24 | 0.172 ± 0.014 |  |  | O=C(Nc1cc(Cl)ccc1F)c1cc(-c2cccc(O)c2)on1 | > 100 | 3.77 ± 0.17 (at 1.56 μM) |  |  | 
25 | 0.00134 ± 0.00026 |  |  | Cc1ncc(Cl)cc1NC(=O)c1cc(-c2ccc(Cl)c(O)c2)on1 | > 100 | 6.91 ± 0.47 (at 1.56 μM) |  |  | 
26 | 0.00018 ± 4.2e-05 |  |  | Cc1c(Cl)cccc1NC(=O)c1cc(-c2ccc(Cl)c(O)c2)on1 | > 100 | 8.22 ± 0.58 (at 1.56 μM) |  |  | 
27 | 0.146 ± 0.0115 |  |  | COc1ccc(-c2cc(C(=O)Nc3cc(Cl)ccc3Cl)no2)cc1O | > 100 | 4.34 ± 0.53 | 9.59 ± 1.29 |  | 
28 | 0.0121 ± 0.0014 |  |  | Cc1cccc(C)c1NC(=O)c1cc(-c2cccc(O)c2)on1 | > 100 | 8.12 ± 0.59 (at 1.56 μM) |  |  | 
29 | 0.071 ± 0.0011 |  |  | O=C(Nc1cccc(Cl)c1Cl)c1cc(-c2ccc(F)c(O)c2)on1 [drawing 193] | > 100 |  | 11.21 ± 1.38 |  | 
30 | 0.0014 ± 0.0002 |  |  | Cc1ccc(Cl)cc1NC(=O)c1cc(-c2ccc(F)c(O)c2)[nH]n1 | 30.4 ± 5.5 | 10.92 ± 0.74 (at 1.56 μM) |  |  | 
31 | 0.277 ± 0.001 |  |  | COc1ccc(-c2cc(C(=O)Nc3cc(Cl)cc(Cl)c3)no2)cc1O [drawing 126] | > 100 | 1.17 ± 0.11 (at 1.56 μM) |  |  | 
32 | 0.076 ± 0.0092 |  |  | O=C(Nc1cc(Cl)cc(Cl)c1)c1cc(-c2ccc(F)c(O)c2)on1 [drawing 191] | > 100 |  | 11.22 ± 1.22 |  | 
33 | 0.0554 ± 0.0041 |  |  | O=C(Nc1cccc(Cl)c1Cl)c1cc(-c2ccc(F)c(O)c2)on1 [drawing 136] | > 100 |  | 9.37 ± 0.65 |  | 
34 | 0.00216 ± 0.00045 |  |  | Cc1ccc(Cl)cc1NC(=O)c1cc(-c2ccc(Cl)c(O)c2)on1 | > 100 | 6.21 ± 0.66 (at 1.56 μM) |  |  | 
35 | 0.06 ± 0.0076 |  |  | COc1ccc(Cl)cc1NC(=O)c1cc(-c2cccc(O)c2)on1 | > 100 | 6.95 ± 1.15 | 10.89 ± 1.34 |  | 
